Experimental data taken from patent US10442763B2, “EBNA1 inhibitors and methods using same” (priority 2015, dated 2019).

Target: T1, His-EBNA1 (DNA binding domain of EBNA1, amino acids 459-607) (Epstein-Barr virus, UniProt P03211)
T1 construct: made in house; host or cells: E. coli
Test: Inhibition of 5'-biotin-oPL4624 binding to His-EBNA1 using Alpha Screen technology
Protocol: Inhibition of 5′-Biotin-oPL4624 Binding to his-EBNA1 Using Alpha Screen Technology
Assays were performed using the DNA binding domain of EBNA1 (amino acids 459-607), which was His-tagged (His-EBNA1) and the self-complementary biotinylated (bt) oligonucleotide with the sequence 5′-bt-[…]-ATGCTACCC-3′ (bt-oPL4624; or 5′-bt-SEQ ID NO: 1). The protein was expressed in E. coli and purified according to Barwell, et al., 1995, J Biol Chem. 270:20556-9.). The bt-oPL4624 oligonucleotide was purchased from Integrated DNA Technologies, Inc (IDT). AlphaScreen donor, acceptor beads and white, opaque 384-well assay plates were purchased from PerkinElmer, Inc.
Assays contained 15 nM His-EBNA1, 0.2 nM bt-oPL4624, 5 μg/mL AlphaScreen streptavidin donor beads and nickel chelate acceptor beads, and a series of concentrations of test compound ranging from 3.2 nM to 100 μM in a total volume of 40 μL assay buffer (25 mM Tris, pH 7.2, 160 mM NaCl, 1 mM MgCl2). His-EBNA1 (30 nM) and bt-oPL4624 (0.4 nM) were preincubated with 10 μg/mL nickel chelate AlphaScreen acceptor bead, or 10 μg/mL streptavidin AlphaScreen donor bead, respectively, for 30 minutes at room temperature in assay buffer. Twenty microliters of His-EBNA1/acceptor bead mix and bt-oPL4624/donor bead mix were transferred to assay plates containing 0.4 μL of 1:3 serial dilutions of test compounds previously prepared in DMSO at concentrations ranging from 0.32 μM to 10 mM. Non-specific binding was determined with 5 μg/mL AlphaScreen acceptor bead in the absence of His-EBNA1. After 2 hr incubation at room temperature, the AlphaScreen signal was measured on the Envision plate reader (PerkinElmer, Inc.) at 680 nm excitation and 570 nm emission. Inhibition values at each concentration of test compound were determined by setting 100% equal to raw data values in the absence of EBNA1 and 0% equal to the raw data values in the presence of EBNA1. Nonlinear regression fits of the inhibition values to a one-site dose-response equation were performed using GraphPad Prism.

T1 sequence (P03211 459-607): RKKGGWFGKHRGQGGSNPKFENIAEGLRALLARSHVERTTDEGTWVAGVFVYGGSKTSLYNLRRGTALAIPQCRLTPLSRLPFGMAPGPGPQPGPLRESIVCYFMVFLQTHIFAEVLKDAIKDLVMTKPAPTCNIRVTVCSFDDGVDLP

## O=C(O)c1cccc(C#Cc2ccc3ccn(CCN4CCS(=O)(=O)CC4)c3c2)c1-c1ccc2cc[nH]c2c1 [Entry 23]
  IC50: 10 to 100 µM

## O=C(O)c1cccc(C#Cc2ccc(CN3CCC(CCO)CC3)cc2)c1-c1ccc2cc[nH]c2c1 [Entry 150]
  IC50: 1 to 10 µM

## O=C(O)c1cccc(C#Cc2ccc3cc(CN4CCS(=O)(=O)CC4)[nH]c3c2)c1-c1ccc2cc[nH]c2c1 [Entry 34]
  IC50: 1 to 10 µM

## CS(=O)(=O)N1CCC(N2CCc3ccc(C#Cc4cccc(C(=O)O)c4-c4ccc5cc[nH]c5c4)cc3C2)C1 (stereo not shown) [Entry 58]
  IC50: 10 to 100 µM

## CN1CCN(Cc2ccc(C#Cc3cccc(C(=O)O)c3-c3ccc4cc[nH]c4c3)cc2)CC1 [Entry 147]
  IC50: 10 to 100 µM

## O=C(O)c1cccc(C#Cc2ccc(CN3CCN(C4CCCC4)CC3)cc2)c1-c1ccc2cc[nH]c2c1 [Entry 170]
  IC50: 10 to 100 µM

## CN1CCN(Cc2ccc(C#Cc3cccc(C(=O)O)c3-c3ccc4[nH]ccc4c3)cc2)CC1 [Entry 182]
  IC50: 1 to 10 µM

## O=C(O)c1cccc(C#Cc2ccc(CN3CCN(c4cnccn4)CC3)cc2)c1-c1ccc2cc[nH]c2c1 [Entry 172]
  IC50: 1 to 10 µM

## CN1CCCN(Cc2ccc(C#Cc3cccc(C(=O)O)c3-c3ccc4cc[nH]c4c3)cc2)CC1 [Entry 152]
  IC50: 1 to 10 µM

## O=C(O)c1cccc(C#Cc2ccc(CN3CCNCC3)cc2)c1-c1ccc2cc[nH]c2c1 [Entry 167]
  IC50: 10 to 100 µM

## COc1ccc(OCc2ccc(C#Cc3cccc(C(=O)O)c3-c3ccc4cc[nH]c4c3)cc2)cc1 [Entry 85]
  IC50: 1 to 10 µM

## O=C(O)c1cccc(C#Cc2ccc(OC3CC[S+]([O-])CC3)cc2)c1-c1ccc2cc[nH]c2c1 (stereo not shown) [Entry 29]
  IC50: 10 to 100 µM

## CS(=O)(=O)N1CC(N2CCc3cc(C#Cc4cccc(C(=O)O)c4-c4ccc5cc[nH]c5c4)ccc3C2)C1 [Entry 60]
  IC50: 10 to 100 µM

## O=C(O)c1cccc(C#Cc2cn(CCCN3CCOCC3)c3ncccc23)c1-c1ccc2cc[nH]c2c1 [Entry 7]
  IC50: 10 to 100 µM

## COc1cccc(C)c1NC(=O)c1cccc(C#Cc2cccc(C(=O)O)c2-c2ccc3cc[nH]c3c2)c1 [Entry 137]
  IC50: 1 to 10 µM

## O=C(O)c1cccc(C#Cc2ccc(CN3CCN(C(=O)C4CC4)CC3)cc2)c1-c1ccc2cc[nH]c2c1 [Entry 166]
  IC50: 1 to 10 µM

## O=C(O)c1cccc(C#Cc2ccc3nc(C(F)(F)F)[nH]c(=O)c3c2)c1-c1ccc2cc[nH]c2c1 [Entry 135]
  IC50: 1 to 10 µM

## O=C(O)c1cccc(C#Cc2ccc(CN3CCC(F)(F)CC3)cc2)c1-c1ccc2cc[nH]c2c1 [Entry 158]
  IC50: 1 to 10 µM

## O=C(O)c1cccc(C#Cc2ccc(-c3ccc(=O)[nH]n3)cc2)c1-c1ccc2cc[nH]c2c1 [Entry 44]
  IC50: 1 to 10 µM

## CS(=O)(=O)N1CC2CN(Cc3ccc(C#Cc4cccc(C(=O)O)c4-c4ccc5cc[nH]c5c4)cc3)CC2C1 (stereo not shown) [Entry 189]
  IC50: 10 to 100 µM

## O=C(O)c1cccc(C#Cc2ccc(CN3CCOCC3)cc2)c1-c1ccc2cc[nH]c2c1 [Entry 145]
  IC50: 1 to 10 µM

## O=C(O)c1cccc(C#Cc2ccc(CN3CCN(S(=O)(=O)c4ccccc4)CC3)cc2)c1-c1ccc2cc[nH]c2c1 [Entry 168]
  IC50: 1 to 10 µM

## O=C(O)c1cccc(C#Cc2ccc3ccn(CC4CCS(=O)(=O)CC4)c3c2F)c1-c1ccc2cc[nH]c2c1 [Entry 37]
  IC50: 1 to 10 µM

## CC(C)(C)OC(=O)N1CCC2(CC1)CC(=O)c1cc(C#Cc3cccc(C(=O)O)c3-c3ccc4cc[nH]c4c3)ccc1O2 [Entry 124]
  IC50: 1 to 10 µM

## O=C(O)c1cccc(C#Cc2cnc3c(ccn3CCCN3CCOCC3)c2)c1-c1ccc2cc[nH]c2c1 [Entry 6]
  IC50: 1 to 10 µM

## O=C(O)c1cccc(C#Cc2ccc3c(ccn3CCCN3CCS(=O)(=O)CC3)c2)c1-c1ccc2cc[nH]c2c1 [Entry 24]
  IC50: 10 to 100 µM

## CC(C)S(=O)(=O)N1CCC(Cc2ccc(C#Cc3cccc(C(=O)O)c3-c3ccc4cc[nH]c4c3)cc2)CC1 [Entry 54]
  IC50: 1 to 10 µM

## CN(C)Cc1ccc(C#Cc2cccc(C(=O)O)c2-c2ccc3cc[nH]c3c2)cc1 [Entry 156]
  IC50: 10 to 100 µM

## O=C1CCC(C(=O)NCc2ccc(C#Cc3cccc(C(=O)O)c3-c3ccc4cc[nH]c4c3)cc2)CC1 [Entry 198]
  IC50: < 1 µM

## COc1cc(C#Cc2cccc(C(=O)O)c2-c2ccc3cc[nH]c3c2)ccc1CN1CCC(F)(F)CC1 [Entry 48]
  IC50: 1 to 10 µM

## CCS(=O)(=O)N1CCN(Cc2ccc(C#Cc3cccc(C(=O)O)c3-c3ccc4cc[nH]c4c3)cc2)CC1 [Entry 183]
  IC50: 10 to 100 µM

## CC(C)OCc1ccc(C#Cc2cccc(C(=O)O)c2-c2ccc3cc[nH]c3c2)cc1 [Entry 28]
  IC50: 1 to 10 µM

## O=C(O)c1cccc(C#Cc2ccc(COC3CCOCC3)cc2)c1-c1ccc2cc[nH]c2c1 [Entry 27]
  IC50: 10 to 100 µM

## CN1CCN(C(=O)c2ccc(C#Cc3cccc(C(=O)O)c3-c3ccc4cc[nH]c4c3)cc2)CC1 [Entry 202]
  IC50: 10 to 100 µM

## O=C(O)c1cccc(C#Cc2ccccc2)c1-c1cnc2ncccc2c1 [Entry 115]
  IC50: 100 to 1000 µM

## CN(C)CCCn1cc(C#Cc2cccc(C(=O)O)c2-c2ccc3cc[nH]c3c2)c2cccnc21 [Entry 11]
  IC50: 100 to 1000 µM

## O=C(O)c1cccc(C#Cc2cc3ccn(CC4CCS(=O)(=O)CC4)c3cc2F)c1-c1ccc2cc[nH]c2c1 [Entry 38]
  IC50: 1 to 10 µM

## O=C(O)c1cccc(C#Cc2ccc(C(=O)C3CCOCC3)cc2)c1-c1ccc2cc[nH]c2c1 [Entry 108]
  IC50: 1 to 10 µM

## N#Cc1ccccc1OCc1ccc(C#Cc2cccc(C(=O)O)c2-c2ccc3cc[nH]c3c2)cc1 [Entry 94]
  IC50: 1 to 10 µM

## O=C(O)c1cccc(C#Cc2ccc3ccn(CCCN4CCOCC4)c3c2)c1-c1ccc2cc[nH]c2c1 [Entry 15]
  IC50: 10 to 100 µM

## CS(=O)(=O)c1ccccc1OCc1ccc(C#Cc2cccc(C(=O)O)c2-c2ccc3cc[nH]c3c2)cc1 [Entry 97]
  IC50: 1 to 10 µM

## COc1cc(C#Cc2cccc(C(=O)O)c2-c2ccc3cc[nH]c3c2)ccc1CN1CCOCC1 [Entry 45]
  IC50: 10 to 100 µM

## CS(=O)(=O)N1CC(CN2Cc3ccc(C#Cc4cccc(C(=O)O)c4-c4ccc5cc[nH]c5c4)cc3C2)C1 [Entry 71]
  IC50: 10 to 100 µM

## O=C(O)c1cccc(C#Cc2ccc(COC3CCOCC3)cc2F)c1-c1ccc2cc[nH]c2c1 [Entry 186]
  IC50: 1 to 10 µM

## COc1ccc(C#Cc2cccc(C(=O)O)c2-c2cnc3[nH]ccc3c2)cc1 [Entry 141]
  IC50: 10 to 100 µM

## O=C(O)c1cccc(C#Cc2ccc(F)cc2)c1-c1cnc2[nH]ccc2c1 [Entry 140]
  IC50: 10 to 100 µM

## CS(=O)(=O)NC(=O)c1cccc(C#Cc2ccc(COC3CCOCC3)cc2)c1-c1ccc2cc[nH]c2c1 [Entry 195]
  IC50: 10 to 100 µM

## CC(=O)Nc1cc(C#Cc2cccc(C(=O)O)c2-c2ccc3cc[nH]c3c2)ccc1OC1CCOCC1 [Entry 2]
  IC50: 10 to 100 µM

## Cc1nc2cc(-c3c(C#Cc4ccccc4)cccc3C(=O)O)ccc2s1 [Entry 112]
  IC50: 10 to 100 µM

## Nc1ccc(C#Cc2cccc(C(=O)O)c2-c2ccc3cc[nH]c3c2)cc1S(N)(=O)=O [Entry 123]
  IC50: 10 to 100 µM

## O=C(O)c1cccc(C#Cc2ccc(CN3CCc4ccccc4C3)cc2)c1-c1ccc2cc[nH]c2c1 [Entry 160]
  IC50: 1 to 10 µM

## NS(=O)(=O)N1CCN(Cc2ccc(C#Cc3cccc(C(=O)O)c3-c3ccc4cc[nH]c4c3)cc2)CC1 [Entry 205]
  IC50: 1 to 10 µM

## O=C(O)c1cccc(C#Cc2ccc3c(CN4CCOCC4)c[nH]c3c2)c1-c1ccc2cc[nH]c2c1 [Entry 30]
  IC50: 10 to 100 µM

## O=C(O)c1cccc(C#Cc2ccc(CN3CCC(CO)CC3)cc2)c1-c1ccc2cc[nH]c2c1 [Entry 151]
  IC50: 10 to 100 µM

## N#Cc1cccc(OCc2ccc(C#Cc3cccc(C(=O)O)c3-c3ccc4cc[nH]c4c3)cc2)c1 [Entry 81]
  IC50: 1 to 10 µM

## CS(=O)(=O)N1CC(N2Cc3ccc(C#Cc4cccc(C(=O)O)c4-c4ccc5cc[nH]c5c4)cc3C2)C1 [Entry 69]
  IC50: 1 to 10 µM

## O=C(O)c1cccc(C#Cc2cc3ccn(CC4CCOCC4)c3cc2F)c1-c1ccc2cc[nH]c2c1 [Entry 35]
  IC50: 1 to 10 µM

## O=C(O)c1cccc(C#Cc2ccccc2)c1-c1ccc2cc[nH]c2c1F [Entry 109]
  IC50: 10 to 100 µM

## O=C(O)c1cccc(C#Cc2ccc(CN3CCN(C4CCCCC4)CC3)cc2)c1-c1ccc2cc[nH]c2c1 [Entry 165]
  IC50: 10 to 100 µM

## O=C(O)c1cccc(C#Cc2ccc(COC3CCS(=O)(=O)CC3)cc2)c1-c1ccc2cc[nH]c2c1 [Entry 26]
  IC50: 10 to 100 µM

## COc1cc(-c2c(C#Cc3ccccc3)cccc2C(=O)O)cc2[nH]ccc12 [Entry 119]
  IC50: 1 to 10 µM

## Nc1nnc(-c2ccc(C#Cc3cccc(C(=O)O)c3-c3ccc4cc[nH]c4c3)cc2)s1 [Entry 127]
  IC50: 1 to 10 µM

## O=C(O)c1cccc(C#Cc2ccc(COC3CCS(=O)(=O)CC3)cc2F)c1-c1ccc2cc[nH]c2c1 [Entry 187]
  IC50: 10 to 100 µM

## O=C(O)c1cccc(C#Cc2ccc(OC3CCOCC3)cc2)c1-c1ccc2[nH]ccc2c1 [Entry 193]
  IC50: 1 to 10 µM
